Experimental data from patent US20130096321A1, “CRYSTALLINE ROTIGOTINE BASE AND PREPARATION PROCESS THEREFOR” (CHEMAGIS LTD., priority 2007, published 2013).

Assay: Thermogravimetric analysis (TGA) of rotigotine base crystalline Form I
Assay type: physicochemical
Conditions: platinum baskets, heating rate 5° C./minute, FIG. 4
Procedure: Rotigotine base crystalline form I produces a TGA curve as depicted in FIG. 4. […] The TGA measurement was performed using a TA instruments Q500 Thermal analyzer with Universal Software (version 3.88). Samples were analyzed inside platinum baskets at heating rate of 5° C./minute.

Question: What does the source list for `CCCN(CCc1cccs1)[C@H]1CCc2c(O)cccc2C1` [crystalline rotigotine base Form I, (S)-(−)-5-hydroxy-2-(N-n-propyl-N-2-thienylethyl)-aminotetralin]?
Answer: decomposition on heating (from TGA curve): does not decompose on heating; thermal stability (from TGA curve): thermally stable
